Data set [1] is described as follows: logP by HPLC on reversed-phase columns (C 18), EEC Directive 79/831 Annex V.A8. It counts as physicochemical. The protocol:
Calibration is carried out using unbranched alkan-2-ones (having from 3 to 16 carbon atoms) with known log P values (the log P values are determined by the retention times using linear interpolation between two successive alkanones).

For data set [2], the system named is greenhouse red spider mite (Tetranychus urticae). The data set can be described thus: Tetranychus urticae spray test, OP-resistant (TETRUR), bean leaf disks. It counts as in vivo. The following applies: application rate 500 g/ha, after 6 days; for pest or weed control at 500 g/ha: Tetranychus urticae, foliar, 144 h, read-out: efficacy (spider mites killed). The protocol: After 6 days, the effect in % is determined.

[3] abbreviates: [a] LC-MS, acidic range, pH 2.7, 0.1% aqueous formic acid/acetonitrile.
Where [4] appears, read: reversed-phase C18 HPLC column, pH 2.7, [a] LC-MS, acidic range, pH 2.7, 0.1% aqueous formic acid/acetonitrile, read-out: logP(HCOOH).
[5] abbreviates: reversed-phase C18 HPLC column, pH 7.8, [b] LC-MS, neutral range, pH 7.8, 0.001 molar aqueous ammonium bicarbonate/acetonitrile, read-out: logP(neutral).
[6] abbreviates: [a] LC-MS, acidic range, pH 2.7, 0.1% aqueous formic acid/acetonitrile, read-out: logP(HCOOH).
[7] abbreviates: [b] LC-MS, neutral range, pH 7.8, 0.001 molar aqueous ammonium bicarbonate/acetonitrile, read-out: logP(neutral).

Read-outs that look alike come from different tables or passages of the source. Marks after values point to notes of the source that are not given here.

For `Cc1cc(F)c(NC(=S)NCC(F)(F)F)cc1[S+]([O-])CC(F)(F)F` (centres unmarked), the “logP(HCOOH)” value in data set [1] (setting [3]) was determined as 2.34. Besides, the “logP(neutral)” value in data set [1] ([b] LC-MS, neutral range, pH 7.8, 0.001 molar aqueous ammonium bicarbonate/acetonitrile) worked out at 2.30.

On to `Cc1cc(C)c(SCC(F)(F)F)cc1N=C1NCCO1` [2,4-Dimethyl-N-[1,3-oxazolidin-2-ylidene]-5-[(2,2,2-trifluoroethyl)sulfanyl]aniline], for which the chromatographic logP in data set [1] (pH 2.7, logP(HCOOH)) turned out to be 1.36. In the case of `Cc1cc(F)c(N=C2NCCS2)cc1[S+]([O-])CC(F)(F)F` (centres unmarked) [2-Fluoro-4-methyl-N-[1,3-thiazolidin-2-ylidene]-5-[(2,2,2-trifluoroethyl)sulfinyl]aniline], the chromatographic logP in data set [1] (setting [4]) was 0.8. As to `Cc1cc(F)c(/N=C2\CCCN2c2ccccc2)cc1SCC(F)(F)F` [2-Fluoro-4-methyl-N-[(2E)-1-phenylpyrrolidin-2-ylidene]-5-[(2,2,2-trifluoroethyl)sulfanyl]aniline], the chromatographic logP in data set [1] (setting [4]) amounted to 1.83; in data set [1] (setting [5]), 4.92. Turning to `Nc1cccc(SCC(F)(F)F)c1` [3-[(2,2,2-Trifluoroethyl)sulfanyl]aniline], in data set [1] (setting [4]), the chromatographic logP was found to be 2.01.

Turning to `Cc1cc(F)c(SCC(F)(F)F)cc1NC(=O)C(F)(F)F` [III-4, 2,2,2-Trifluoro-N-{4-fluoro-2-methyl-5-[(2,2,2-trifluoroethyl)sulfanyl]phenyl}acetamide], the chromatographic logP amounted to 3.16 in data set [1] (setting [4]) and 3.1 in data set [1] (setting [5]). `O=C(Nc1cc(SCC(F)(F)F)c(Br)cc1Cl)C(F)(F)F` [III-5, N-{4-Bromo-2-chloro-5-[(2,2,2-trifluoroethyl)sulfanyl]phenyl}-2,2,2-trifluoroacetamide]: in data set [1] (setting [4]), the chromatographic logP worked out at 3.78. In the case of `O=C(Nc1cc(SCC(F)(F)F)c(Br)cc1Br)C(F)(F)F` [III-6, N-{2,4-Dibromo-5-[(2,2,2-trifluoroethyl)sulfanyl]phenyl}-2,2,2-trifluoroacetamide], the chromatographic logP in data set [1] (setting [4]) was 3.81. `O=C(Nc1cc(SCC(F)(F)F)c(F)cc1Cl)C(F)(F)F` [III-7, N-{2-Chloro-4-fluoro-5-[(2,2,2-trifluoroethyl)sulfanyl]phenyl}-2,2,2-trifluoroacetamide]: the chromatographic logP in data set [1] (setting [4]) is 3.33; in data set [1] (setting [5]), 3.11. For `O=C(Nc1cc(SCC(F)(F)F)c(Br)cc1Cl)C(F)(F)F` [III-9, N-{4-Bromo-2-chloro-5-[(2,2,2-trifluoroethyl)sulfanyl]phenyl}-2,2,2-trifluoroacetamide], in data set [1] (setting [3]), the “logP(HCOOH)” value is reported as 3.46. Moreover, the chromatographic logP in data set [1] (setting [5]) worked out at 3.11.

For `Cc1cc(F)c(SSc2cc(NC(=O)C(F)(F)F)c(C)cc2F)cc1NC(=O)C(F)(F)F` [IV-2, N,N′-[Disulfanediylbis(4-fluoro-6-methylbenzene-3,1-diyl)]bis(2,2,2-trifluoroacetamide)], the chromatographic logP came out at 4 in data set [1] (setting [4]) and 3.92 in data set [1] (setting [5]).

`O=C(Nc1cc(SSc2cc(NC(=O)C(F)(F)F)c(Cl)cc2Br)c(Br)cc1Cl)C(F)(F)F` [IV-3, N,N′-[Disulfanediylbis(4-bromo-6-chlorobenzene-3,1-diyl)]bis(2,2,2-trifluoroacetamide)]: the chromatographic logP in data set [1] (setting [4]) is 5.42. On to `O=C(Nc1cc(SSc2cc(NC(=O)C(F)(F)F)c(Br)cc2Br)c(Br)cc1Br)C(F)(F)F` [IV-4, N,N′-[Disulfanediylbis(4,6-dibromobenzene-3,1-diyl)]bis(2,2,2-trifluoroacetamide)], for which the figures for the chromatographic logP in data set [1] (setting [4]) and in data set [1] (setting [5]) were 5.62 and 4.49, respectively. As for `O=C(Nc1cc(SSc2cc(NC(=O)C(F)(F)F)c(Cl)cc2F)c(F)cc1Cl)C(F)(F)F` [IV-5, N,N′-[Disulfanediylbis(6-chloro-4-fluorobenzene-3,1-diyl)]bis(2,2,2-trifluoroacetamide)], the chromatographic logP in data set [1] (setting [4]) was determined as 4.45; in data set [1] (setting [5]), 3.81. In the same order, the values of `O=C(Nc1cc(SSc2cc(NC(=O)C(F)(F)F)c(F)cc2Br)c(Br)cc1F)C(F)(F)F` [IV-7, N,N′-[Disulfanediylbis(4-bromo-6-fluorobenzene-3,1-diyl)]bis(2,2,2-trifluoroacetamide)] are 4.76 and 4.02. For `Cc1cc(F)c(N=C(NS(C)(=O)=O)C(F)(F)F)cc1SCC(F)(F)F` [Ia-11], the “logP(HCOOH)” value in data set [1] (pH 2.7) was 3.05^[a]. For the same compound, the “efficacy (spider mites killed)” value in data set [2] worked out at 100%. For `Cc1cc(F)c(SCC(F)(F)F)cc1N=C(N(C)C)C(F)(F)F` [Ia-24], in data set [1] (pH 2.7), the “logP(HCOOH)” value is 4.53. Besides, the “logP(neutral)” value in data set [1] (pH 7.8) was 4.47. With `Cc1cc(F)c(/N=C(/NCC2CC2)C(F)(F)F)cc1SCC(F)(F)F` [Ia-41], in data set [1] (setting [4]), the chromatographic logP was determined as 4.62. Further, in data set [2], the pest or weed control at 500 g/ha worked out at 100%. `Cc1cc(F)c(/N=C(/NCc2ccc(C(F)(F)F)cc2)C(F)(F)F)cc1SCC(F)(F)F` [Ia-89]: the chromatographic logP in data set [1] (setting [4]) and in data set [1] (setting [5]) was 5.15 in each case. Also, the pest or weed control at 500 g/ha in data set [2] was 100%.

Take `Cc1cc(F)c(/N=C(/Nc2ccccc2)C(F)(F)F)cc1SCC(F)(F)F` [Ia-96]: the chromatographic logP in data set [1] (setting [4]) and in data set [1] (setting [5]) was 4.37 in each case. Besides, the pest or weed control at 500 g/ha in data set [2] stood at 100%.

Regarding `Cc1cc(F)c(/N=C(\N)c2cnccn2)cc1SCC(F)(F)F` [Ia-117, N′-{2-Fluoro-4-methyl-5-[(2,2,2-trifluoroethyl)sulfanyl]phenyl}pyrazine-2-carboximidamide], the chromatographic logP in data set [1] (setting [4]) came out at 1.24. The pest or weed control at 500 g/ha in data set [2] is 90%.

For the compound `COc1ccc(N/C(=N/c2cc(SCC(F)(F)F)c(C)cc2F)C(F)(F)F)cc1` [Ia-129], the chromatographic logP in data set [1] (setting [4]) and in data set [1] (setting [5]) was 4.2 throughout. Besides, in data set [2], the pest or weed control at 500 g/ha was 100%.

With `Cc1cc(F)c(N=C(N)c2ccccc2F)cc1SCC(F)(F)F` [Ia-143], the results for the chromatographic logP in data set [1] (setting [4]) and in data set [1] (setting [5]) were 1.37 and 3.25, respectively.

Regarding `Cc1cc(F)c(/N=C(\NCC(F)(F)F)C2CC2)cc1SCC(F)(F)F` [Ia-145, N′-{2-fluoro-4-methyl-5-[(2,2,2-trifluoroethyl)sulfanyl]phenyl}-N-(2,2,2-trifluoroethyl)cyclopropanecarboximidamide], the chromatographic logP in data set [1] (setting [4]) is 1.99; in data set [1] (setting [5]), 4.12. Also, the pest or weed control at 500 g/ha in data set [2] was determined as 100%. As for `CN/C(=N/c1cc(SCC(F)(F)F)c(C)cc1F)c1ccc(OC)cc1` [Ia-165], the figures for the chromatographic logP in data set [1] (setting [4]) and in data set [1] (setting [5]) were 1.68 and 3.49, respectively. For the same compound, in data set [2], the pest or weed control at 500 g/ha stood at 100%.

Consider `Cc1cc(F)c(/N=C2\CCCN2c2ccccc2)cc1[S+]([O-])CC(F)(F)F` (centres unmarked) [Ib-55, 2-Fluoro-4-methyl-N-[(2E)-1-phenylpyrrolidin-2-ylidene]-5-[(2,2,2-trifluoroethyl)sulfinyl]aniline], for which the chromatographic logP in data set [1] (setting [4]) worked out at 1.27; in data set [1] (setting [5]), 3.47. For `COc1ccccc1/C(=N\c1cc([S+]([O-])CC(F)(F)F)c(C)cc1F)N(C)C` (centres unmarked) [Ib-161], in that order: 1.28 and 2.95.

For the compound `Cc1cc(F)c(/N=C2\CCCN2C(C)C(F)(F)F)cc1[S+]([O-])CC(F)(F)F` (centres unmarked) [Ib-169], the pest or weed control at 500 g/ha in data set [2] amounted to 100%. Regarding `Cc1cc(F)c(/N=c2\scc(C3(Cl)CC3)n2CC(F)(F)F)cc1[S+]([O-])CC(F)(F)F` (centres unmarked) [Ib-172], the pest or weed control at 500 g/ha in data set [2] worked out at 90%. Take `Cc1cc(F)c(/N=c2\snc(C)n2C)cc1[S+]([O-])CC(F)(F)F` (centres unmarked) [Ib-174]: the pest or weed control at 500 g/ha in data set [2] was found to be 100%. Consider `COc1cc(C)c(SSc2cc(NC(C)=O)c(OC)cc2C)cc1NC(C)=O` [N,N′-[Disulfanediylbis(6-methoxy-4-methylbenzene-3,1-diyl)]diacetamide], for which the chromatographic logP in data set [1] (setting [4]) was determined as 2.73.

Turning to `Cc1cc(F)c(NC(=O)c2ccc(C(F)(F)F)cc2)cc1SCC(F)(F)F` [N-{2-Fluoro-4-methyl-5-[(2,2,2-trifluoroethyl)sulfanyl]phenyl}-4-(trifluoromethyl)benzamide], the chromatographic logP came to 4.2 in data set [1] (setting [4]) and 4.17 in data set [1] (setting [5]).

In the case of `FC(F)(F)CSc1cc(N=C(Cl)C(F)(F)F)ccc1Cl` [N-{4-Chloro-3-[(2,2,2-trifluoroethyl)sulfanyl]phenyl}-2,2,2-trifluoroethanimidoyl chloride], the chromatographic logP in data set [1] (setting [4]) stood at 4.77; in data set [1] (setting [5]) it was 4.73. As to `Cc1cc(F)ccc1NC(=O)C(F)(F)F` [VI-2, 2,2,2-Trifluoro-N-(4-fluoro-2-methylphenyl)acetamide], the chromatographic logP in data set [1] (setting [4]) is 2.2; in data set [1] (setting [5]) it was 2.19.

As for `O=C(Nc1ccc(Br)cc1Cl)C(F)(F)F` [VI-3, N-(4-Bromo-2-chlorophenyl)-2,2,2-trifluoroacetamide], the chromatographic logP in data set [1] (setting [6]) is 3.01; in data set [1] (setting [7]) it was 2.81. As to `O=C(Nc1ccc(Br)cc1Br)C(F)(F)F` [VI-4, N-(2,4-Dibromophenyl)-2,2,2-trifluoroacetamide], the results for the chromatographic logP in data set [1] (setting [6]) and in data set [1] (setting [7]) were 3.1 and 2.89, respectively. In the case of `O=C(Nc1ccc(F)cc1Cl)C(F)(F)F` [VI-5, N-(2-Chloro-4-fluorophenyl)-2,2,2-trifluoroacetamide], the chromatographic logP is 2.46 in data set [1] (setting [6]) and 2.31 in data set [1] (setting [7]). `O=C(Nc1ccc(Br)cc1F)C(F)(F)F` [VI-7, N-(4-Bromo-2-fluorophenyl)-2,2,2-trifluoroacetamide]: the results for the chromatographic logP in data set [1] (setting [6]) and in data set [1] (setting [7]) were 2.73 and 2.51, respectively.

(Values after US10051861B2, “N-arylamidine-substituted trifluoroethyl sulfide derivatives as acaricides and insecticides” (BAYER CROPSCIENCE AG, priority 2011, dated 2018).)
